One assay concerns PBMCs from CML patients. The assay can be described thus: Primary screening of FDA approved drug library, TitreGlo/CellTiter-Glo cell viability, PBMCs from CML patients. The class given is cell-based, human. To be noted: for inhibition at 10 µM: Homo sapiens, PBMC, read-out: % Inhibition, CML Average. On the technique in general: Cellular ATP, detected with luciferase, serves as a proxy for viable cell number.

The subject of the next assay is PBMCs from CLL patients. As to the kind of experiment: Primary screening of FDA approved drug library, TitreGlo/CellTiter-Glo cell viability, PBMCs from CLL patients. The class given is cell-based, human. Particulars: for inhibition at 10 µM: Homo sapiens, PBMC, read-out: % Inhibition, CLL Average.
For another assay, the system named is PBMCs from AML patients. The assay can be described thus: Primary screening of FDA approved drug library, TitreGlo/CellTiter-Glo cell viability, PBMCs from AML patients. It counts as cell-based, human. Particulars: for inhibition at 10 µM: Homo sapiens, PBMC, read-out: % Inhibition, AML Average.
The next assay concerns PBMCs from ALL patients. As to the kind of experiment: Primary screening of FDA approved drug library, TitreGlo/CellTiter-Glo cell viability, PBMCs from ALL patients. It counts as cell-based, human. Particulars: for inhibition at 10 µM: Homo sapiens, PBMC, read-out: % Inhibition, ALL Average.
The test system of the next assay is PBMC from CLL patients. As to the kind of experiment: Confirmation of positive hits, dose-response TiterGlo growth inhibition, PBMC from CLL patients versus healthy controls.
The next assay concerns PBMC from CML patients. As to the kind of experiment: Confirmation of positive hits, dose-response TiterGlo growth inhibition, PBMC from CML patients versus healthy controls. It counts as cell-based, human. To be noted: freshly prepared stock from solid, 24 hr incubation. Here is the method: FIG. 2A depicts data of isoproterenol inducing cell death preferentially in chronic myelogenous leukemia (CML) patients' primary PBMC as compared to PBMC from healthy individuals (Control, CTL) when incubated with different concentrations of isoproterenol prepared from liquid stock. FIG. 2B depicts data of isoproterenol inducing cell death preferentially in chronic myelogenous leukemia (CML) patients' primary PBMC as compared to PBMC from healthy individuals (Control, CTL) when incubated with different concentrations of isoproterenol prepared from a solid.

The mark [1] stands for this setting: compound 10 uM, PBMCs from CML patients, average over patients, relative to high control (0%) and no-cell low control (100%).
[2] abbreviates: compound 10 uM, PBMCs from CLL patients, average over patients, relative to high control (0%) and no-cell low control (100%).
[3] abbreviates: compound 10 uM, PBMCs from AML patients, average over patients, relative to high control (0%) and no-cell low control (100%).
The mark [4] stands for this setting: compound 10 uM, PBMCs from ALL patients, average over patients, relative to high control (0%) and no-cell low control (100%).

Structures can show the parent of a compound that is named as a salt. Where two headings read alike, the source gives them in different places. Starred links: 1 amine or outer side, 2 acyl side, 3 side chain; linkers in the order of their positions; H or OH if unused. Positions of bridges follow the written chain, without caps; N, C: chain ends. Non-standard residues stand in square brackets, D forms with d. Residues, ends and D or L forms follow the SMILES beside them. Chains are numbered I, II in the order given. Actinocin(9to1) = Cc1c2oc3c(C)ccc(C(=O)[*:1])c3nc-2c(C(=O)[*:2])c(N)c1=O; NMeV = CN[C@H](C(=O)O)C(C)C; Sar = CNCC(=O)O

Results on 20 molecules are retold here after patent US10639382B2, “Method for treating leukemia” (National Guard Health Affairs, priority 2017, dated 2020).

Broadly, the inhibition is the drop in the measured response relative to a control, in per cent.

Procedure for PBMC from CLL patients: (§1) Each compound from the ENZO FDA SCREEN-WELL® FDA approved drug library V2 (0.10 μl in 100% DMSO) was transferred to white, 384-well, PS, Cellstar plates (Greiner Bio-One) using the Echo® Liquid Handler (Labcyte Inc.). Each plate contained one column for the High/Low Controls. The Low Control (1% DMSO v/v in column 23, no cells) and the High Control (final 1% DMSO v/v in column 24, with cells) were employed to calculate the Z′ for each assay plate. […] At 24 h post seeding, baseline growth was assessed using a control plate and CellTiter-Glo (CTG) reagent (Promega Corporation). Briefly, 20 μL/well of CTG detection mix was added and plates were read using an EnVision Multimode plate reader (PerkinElmer) after 10 min incubation in the dark. The raw luminescence signal was normalized in ActivityBase XE with outliers in control wells eliminated according to the 3-sigma method to yield percentage of cell viability by using the High Control (HC) containing cells in 1% DMSO v/v (Carl Roth) and the Low Control containing 1% DMSO v/v (Carl Roth). All Medium-Throughput Screening experiments were performed in duplicate for each patient. […] The raw luminescence signal was processed using Graph Pad Prism (Graph Pad Software Inc.) with outliers in control wells eliminated according to the 3-sigma method. The dose-response curves were analyzed using a 4 parameter sigmoidal fit to obtain plausible results in the case non-sigmoidal dose-response curves.
Compound plates were prepared from the same stock used in the original screening and each compound was tested at 16 concentration point with 100 uM being the highest concentration and the dilution factor was ⅓ between two points.
The TitreGlo was performed as described and the curve for growth inhibition was plotted using activity base to calculate the EC50.
Procedure for PBMCs from ALL patients: (§2) Whole blood was taken from experimental group patients and control group patients. The collected blood was transferred to EDTA tubes with a 5 mL pipette and a pipette aid and then to each EDTA tubes corresponding 50 ml centrifuge tubes. All the blood from one patient was placed into 1 tube (50 mL) and an equal volume of PBS was added to the 50 mL centrifuge tube. The sample was then mixed by either inverting the tube or pipetting up & down. The blood was transferred into tow 50 mL leucosep tube and centrifuged at room temperature (18-20° C.) for 15 minutes at 800×g with the brake turned off and acceleration at 2/deceleration at zero. After centrifugation, the white cell interface (buffy coat) was removed by pasture pipette and transferred to the new appropriately labelled 50 ml centrifuge tube. 25 mL PBS was added to the white cell interface (buffy coat) and the mix was centrifuged for 10 minutes at room temperature at 400×g with the brake off and acceleration at 4 & deceleration at 2. The supernatant was discarded from the pellet carefully in an appropriate manner. The pellet was washed another time with 20 mL by centrifugation for 5 minutes as above. The pellet was re-suspended in 5 mL and cells were counted using V-Cell. The cells were then either used directly as fresh for screening or frozen in liquid nitrogen in 10% DMSO/RPMPI media until use.
(§3) The assay used for TitreGlo (Promega) to measure cell viability based on the ATP production. […] The assay was developed in a 384-well plate with 2500 cell/well in 50 uL total volume. Alternatively, the assay could be developed in a 96-well plate with 10,000 cells/well. […] Z′ as a statistics factor was calculated as follows:
as §1
(§4) The Screen-Well FDA approved drug library was screened, which contains 780 approved drugs. […] The final DMSO concentration in the assay plate was 0.1% of total volume. […] The average of all four control samples was then calculated and used to determine the positive “hits” in patients' samples.
(§5) Each average patient samples were plotted against average of the control samples to identify the positive hits.
Procedure for PBMCs from AML patients: as §2, §3, §1, §4, §5
Procedure for PBMCs from CLL patients: as §2, §3, §1, §4, §5
Procedure for PBMCs from CML patients: as §2, §3, §1, §5
Samples from 4 patients were screened against the FDA approved drug library where the Negative Control (High control) contained cells treated with DMSO and the Positive Control (Low control) were based using no cells. The screening was carried out in 96 well plates. The raw luminescence counts were normalized and the % Inhibition was calculated relative to the high control (0% Inhibition) and the low control (100% Inhibition).

On to `Cc1cc2c(s1)Nc1ccccc1N=C2N1CCN(C)CC1` [Olanzapine], for which the inhibition at 10 µM in the assay on PBMCs from CML patients (setting [1]) was 79.5%; with PBMCs from CLL patients (setting [2]), -26.5%; in the assay with PBMCs from AML patients (setting [3]), 1.8%; in the assay with PBMCs from ALL patients (setting [4]), 71.8%. In the assay on PBMC from CLL patients (fresh primary cells, FIG. 4A-4D), the “Induction of cell death in PBMC from CLL patients compared to control cells” value was “shown to induce cell death in PBMC from CLL patients compared to control cells”. Besides, the “Effect on PBMC when primary cells are tested after freezing” value in the assay with PBMC from CLL patients (primary cells tested after freezing) is recorded as “the effect is not observed”.
Consider `OC(c1cc(C(F)(F)F)nc2c(C(F)(F)F)cccc12)C1CCCCN1` (centres unmarked) [Mefloquine HCl], for which the inhibition at 10 µM worked out at 90.4% in the assay on PBMCs from CML patients (setting [1]), 50.5% with PBMCs from CLL patients (setting [2]), 72.7% in the assay on PBMCs from AML patients (setting [3]) and 87.7% with PBMCs from ALL patients (setting [4]).
On to `COC(=O)C1=C(C)NC(C)=C(C(=O)OC)C1c1ccccc1[N+](=O)[O-]` [Nifedipine], for which the inhibition at 10 µM in the assay on PBMCs from CML patients (setting [1]) is 4.2%; in the assay on PBMCs from CLL patients (setting [2]), -10.8%; in the assay with PBMCs from AML patients (setting [3]), 7.9%; with PBMCs from ALL patients (setting [4]) it was 74.3%.
`CC(=O)OC[C@H]1O[C@@H]([S-])[C@H](OC(C)=O)[C@@H](OC(C)=O)[C@@H]1OC(C)=O.CCP(CC)CC.[Au+]` [Auranofin]: the “% Inhibition, CML Average” value in the assay with PBMCs from CML patients (setting [1]) is listed as 94.9%. Besides, in the assay on PBMCs from CLL patients (setting [2]), the “% Inhibition, CLL Average” value is 96.0%. The “% Inhibition, AML Average” value in the assay on PBMCs from AML patients (setting [3]) came to 96.7%. For the same molecule, in the assay on PBMCs from ALL patients (setting [4]), the “% Inhibition, ALL Average” value was found to be 102.9%.
Take `COc1cccc2c1C(=O)c1c(O)c3c(c(O)c1C2=O)C[C@@](O)(C(=O)CO)C[C@@H]3O[C@H]1C[C@H](N)[C@@H](O)[C@H](C)O1` [Epirubicin HCl]: the inhibition at 10 µM in the assay on PBMCs from CML patients (setting [1]) worked out at 5%; in the assay with PBMCs from CLL patients (setting [2]) it was 64.3%; with PBMCs from AML patients (setting [3]) it was 67.1%; in the assay on PBMCs from ALL patients (setting [4]) it was 74.4%.
Regarding `CCN(CC)CCNC(=O)c1c(C)[nH]c(/C=C2\C(=O)Nc3ccc(F)cc32)c1C` [Sunitinib Malate], the inhibition at 10 µM was determined as 65.2% in the assay on PBMCs from CML patients (setting [1]), 40.5% with PBMCs from CLL patients (setting [2]), 56.5% with PBMCs from AML patients (setting [3]) and 54.2% in the assay on PBMCs from ALL patients (setting [4]).
As for `Cc1c2oc3c(C)ccc(C(=O)N[C@@H]4C(=O)N[C@H](C(C)C)C(=O)N5CCC[C@H]5C(=O)N(C)CC(=O)N(C)[C@@H](C(C)C)C(=O)O[C@@H]4C)c3nc-2c(C(=O)N[C@@H]2C(=O)N[C@H](C(C)C)C(=O)N3CCC[C@H]3C(=O)N(C)CC(=O)N(C)[C@@H](C(C)C)C(=O)O[C@@H]2C)c(N)c1=O` [Dactinomycin (=Actinomycin D), Dactinomycin] (I: T[dV]P[Sar][NMeV] / II: T[dV]P[Sar][NMeV]; ester I:1-I:C, II:1-II:C; linker I:N-II:N via Actinocin(9to1)), the inhibition at 10 µM amounted to 24.4% in the assay on PBMCs from CML patients (setting [1]), 42.9% in the assay on PBMCs from CLL patients (setting [2]), 60.4% with PBMCs from AML patients (setting [3]) and 66.5% in the assay with PBMCs from ALL patients (setting [4]).
On to `CS(=O)(=O)CCNCc1ccc(-c2ccc3ncnc(Nc4ccc(OCc5cccc(F)c5)c(Cl)c4)c3c2)o1` [Lapatinib Ditosylate], for which the inhibition at 10 µM was 76.6% in the assay with PBMCs from CML patients (setting [1]), 6.9% in the assay with PBMCs from CLL patients (setting [2]), -76.1% in the assay with PBMCs from AML patients (setting [3]) and 35.1% in the assay on PBMCs from ALL patients (setting [4]).
For `NC(N)=Nc1nc(CSCCC(N)=NS(N)(=O)=O)cs1` [Famotidine], the inhibition at 10 µM in the assay on PBMCs from CML patients (setting [1]) was found to be 17.1%; with PBMCs from CLL patients (setting [2]), 39.2%; with PBMCs from AML patients (setting [3]) it was 5.3%; with PBMCs from ALL patients (setting [4]), 13.4%.
On to `Oc1c(Cl)cc(Cl)c(Cl)c1Cc1c(O)c(Cl)cc(Cl)c1Cl` [Hexachlorophene], for which the inhibition at 10 µM in the assay on PBMCs from CML patients was 26.3%; in the assay on PBMCs from CLL patients, -13.5%; with PBMCs from AML patients, 35%; in the assay with PBMCs from ALL patients, 23%.
For the molecule `C[C@@H](NCCCc1cccc(C(F)(F)F)c1)c1cccc2ccccc12` [Cinacalcet HCl], the inhibition at 10 µM in the assay on PBMCs from CML patients (setting [1]) worked out at 63.3%; in the assay with PBMCs from CLL patients (setting [2]), 28.6%; with PBMCs from AML patients (setting [3]) it was 43.2%; in the assay on PBMCs from ALL patients (setting [4]) it was 41.9%.
As for `Clc1ccc(COC(Cn2ccnc2)c2ccc(Cl)cc2Cl)c(Cl)c1` (centres unmarked) [Miconazole], the inhibition at 10 µM was 69.9% in the assay on PBMCs from CML patients (setting [1]), -3.3% in the assay on PBMCs from CLL patients (setting [2]), 38.1% with PBMCs from AML patients (setting [3]) and -35.1% in the assay on PBMCs from ALL patients (setting [4]).
On to `CC(C)(C)NC[C@H](O)COc1cccc2c1CCCC2=O` [Levobunolol HCl], for which the inhibition at 10 µM is -32.1% in the assay on PBMCs from CML patients (setting [1]), 49.6% in the assay with PBMCs from CLL patients (setting [2]), 1.8% in the assay with PBMCs from AML patients (setting [3]) and -8% in the assay with PBMCs from ALL patients (setting [4]).
In the case of `CCN(CC)C(=S)SSC(=S)N(CC)CC` [Disulfiram], the inhibition at 10 µM in the assay on PBMCs from CML patients (setting [1]) is 92.4%; with PBMCs from CLL patients (setting [2]), -45.4%; in the assay with PBMCs from AML patients (setting [3]), 64%; with PBMCs from ALL patients (setting [4]), 91.5%.
Turning to `CCCCCCCCc1ccc(CCC(N)(CO)CO)cc1` [Fingolimod], the inhibition at 10 µM in the assay with PBMCs from CML patients (setting [1]) amounted to 76.1%; with PBMCs from CLL patients (setting [2]), 47.9%; in the assay on PBMCs from AML patients (setting [3]), 81.5%; in the assay on PBMCs from ALL patients (setting [4]) it was 58.9%.
As to `C[C@](N)(Cc1ccc(O)c(O)c1)C(=O)O` [Methyldopa], the “Effect on CLL PBMC compared to control cells” value with PBMC from CLL patients (dose-response, FIG. 3) is “show an effect on CLL PBMC better than control cell”.
For the molecule `CC(C)NCC(O)c1ccc(O)c(O)c1` (racemic) [(±) Isoproterenol HCl], the values for the inhibition at 10 µM in the assay with PBMCs from CML patients (setting [1]), with PBMCs from CLL patients (setting [2]) and in the assay with PBMCs from ALL patients (setting [4]) were 65.3%, 39.9% and 61.7%, respectively. For the same molecule, the “EC50 of growth inhibition, times higher in control PBMC compared to PBMC from CML patients” value in the assay on PBMC from CML patients is 4.4 times. Further, the “EC50 of growth inhibition, times higher in control PBMC compared to PBMC from CLL patients” value in the assay on PBMC from CLL patients (freshly prepared stock from solid, 24 hr incubation, TiterGlo) is given as 4.8 times.
Consider `N[C@@H](Cc1ccc(N(CCCl)CCCl)cc1)C(=O)O` [Melphalan], for which the inhibition at 10 µM with PBMCs from CML patients (setting [1]) amounted to 32.5%; in the assay with PBMCs from CLL patients (setting [2]) it was 69.6%; in the assay with PBMCs from AML patients (setting [3]) it was 42.1%; with PBMCs from ALL patients (setting [4]), 92.9%.
`CO[C@H]1C[C@@H]2CC[C@@H](C)[C@@](O)(O2)C(=O)C(=O)N2CCCC[C@H]2C(=O)O[C@H]([C@H](C)C[C@@H]2CC[C@@H](OC(=O)C(C)(CO)CO)[C@H](OC)C2)CC(=O)[C@H](C)/C=C(\C)[C@@H](O)[C@@H](OC)C(=O)[C@H](C)C[C@H](C)/C=C/C=C/C=C/1C` [Temsirolimus]: the inhibition at 10 µM is 7% in the assay on PBMCs from CML patients (setting [1]), 26.6% in the assay on PBMCs from CLL patients (setting [2]), 1.6% with PBMCs from AML patients (setting [3]) and -6.4% with PBMCs from ALL patients (setting [4]).
Take `Cc1ncc([N+](=O)[O-])n1CCO` [Metronidazole]: the inhibition at 10 µM in the assay on PBMCs from CML patients (setting [1]) was -17.3%; in the assay with PBMCs from CLL patients (setting [2]) it was 31%; in the assay with PBMCs from AML patients (setting [3]) it was -25.2%; in the assay with PBMCs from ALL patients (setting [4]), -23.9%.
